One test addresses T1, human orexin-2 receptor (Homo sapiens, UniProt O43614).
T1 construct: expressed in transfected cells; host or cells: CHO cells (grown under G418 selection)
T1 sequence (O43614 1-444): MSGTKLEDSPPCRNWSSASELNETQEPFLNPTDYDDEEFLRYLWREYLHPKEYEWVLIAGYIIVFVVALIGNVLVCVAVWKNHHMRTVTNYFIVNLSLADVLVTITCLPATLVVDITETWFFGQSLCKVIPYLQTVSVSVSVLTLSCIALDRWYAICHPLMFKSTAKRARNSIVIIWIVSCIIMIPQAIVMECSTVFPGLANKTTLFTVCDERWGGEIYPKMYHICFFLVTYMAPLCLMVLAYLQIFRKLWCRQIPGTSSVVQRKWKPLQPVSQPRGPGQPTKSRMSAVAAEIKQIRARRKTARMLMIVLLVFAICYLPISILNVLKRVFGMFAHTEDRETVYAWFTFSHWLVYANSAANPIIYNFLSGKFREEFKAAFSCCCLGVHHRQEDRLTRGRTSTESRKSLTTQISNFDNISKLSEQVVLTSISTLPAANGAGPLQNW
Description: FLIPR Ca2+ flux assay, OX2R. Type of test: cell-based. The settings on record: for IC50: CHO cells expressing human orexin-2 receptor, agonist 70 pM Ala-6,12 orexin-A, read-out: OX2R FLIPR; for Fold Selective: OX2R over OX1R, from FLIPR values. As for the experimental part:
(§1) For intracellular calcium measurements, Chinese hamster ovary (CHO) cells expressing the rat orexin-1 receptor or the human orexin-2 receptor, are grown in Iscove's modified DMEM containing 2 mM L-glutamine, […], 1% hypoxanthine-thymidine supplement, 100 U/ml penicillin, 100 μg/ml streptomycin and 10% heat-inactivated fetal calf serum (FCS). The cells are seeded at 20,000 cells/well into Becton-Dickinson black 384-well clear bottom sterile plates coated with poly-D-lysine. All reagents were from GIBCO-Invitrogen Corp. The seeded plates are incubated overnight at 37° C. and 5% CO2. Ala-6,12 human orexin-A as the agonist is prepared as a 1 mM stock solution in 1% bovine serum albumin (BSA) and diluted in assay buffer (HBSS containing 20 mM HEPES, 0.1% BSA and 2.5 mM probenecid, pH7.4) for use in the assay at a final concentration of 70 pM. Test compounds are prepared as 10 mM stock solution in DMSO, then diluted in 384-well plates, first in DMSO, then assay buffer. On the day of the assay, cells are washed 3 times with 100 μl assay buffer and then incubated for 60 min (37° C., 5% CO2) in 60 μl assay buffer containing 1 μM Fluo-4AM ester, 0.02% pluronic acid, and 1% BSA, The dye loading solution is then aspirated and cells are washed 3 times with 100 μl assay buffer, 30 μl of that same buffer is left in each well. Within the Fluorescent Imaging Plate Reader (FLIPR, Molecular Devices), test compounds are added to the plate in a volume of 25 μl, incubated for 5 min and finally 25 μl of agonist is added. Fluorescence is measured for each well at 1 second intervals for 5 minutes and the height of each fluorescence peak is compared to the height of the fluorescence peak induced by 70 pM Ala-6,12 orexin-A with buffer in place of antagonist. […] The intrinsic orexin receptor antagonist activity of a compound which may be used in the present invention may be determined by these assays.

The next test concerns the target T2, rat orexin-1 receptor (Rattus norvegicus, UniProt P56718).
T2 construct: expressed in transfected cells; host or cells: CHO cells (grown under G418 selection)
T2 sequence (P56718 1-416): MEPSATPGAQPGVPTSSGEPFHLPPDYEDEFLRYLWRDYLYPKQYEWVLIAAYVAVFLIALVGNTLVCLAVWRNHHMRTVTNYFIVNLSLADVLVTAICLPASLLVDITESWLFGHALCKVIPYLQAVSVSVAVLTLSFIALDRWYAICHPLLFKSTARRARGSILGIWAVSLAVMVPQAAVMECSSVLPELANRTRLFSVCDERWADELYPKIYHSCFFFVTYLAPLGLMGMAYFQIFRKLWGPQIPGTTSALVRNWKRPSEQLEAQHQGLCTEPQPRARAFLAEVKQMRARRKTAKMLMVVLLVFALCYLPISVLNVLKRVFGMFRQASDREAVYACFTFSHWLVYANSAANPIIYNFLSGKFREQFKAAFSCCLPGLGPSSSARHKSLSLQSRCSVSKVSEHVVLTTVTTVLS
Description: FLIPR Ca2+ flux assay, OX1R. The test is classed as cell-based. Conditions: CHO cells expressing rat orexin-1 receptor; agonist 70 pM Ala-6,12 orexin-A. The procedure:
as §1
(Calcium assays in cells follow changes in intracellular calcium, usually with a dye or a luminescent sensor.)

SMILES strings stand for the structures.

For the compound `C[C@@H]1CCN(c2cccc(C(C)(C)O)n2)CCN1C(=O)c1ccccc1-n1nccn1` [Example 20, (R)-(2-(2H-1,2,3-triazol-2-yl)phenyl)(4-(6-(2-hydroxypropan-2-yl)pyridin-2-yl)-7-methyl-1,4-diazepan-1-yl)methanone], at human orexin-2 receptor, the IC50 amounted to 32 nM and the “Fold Selective” value is listed as 61. The same compound displayed an IC50 at rat orexin-1 receptor of 1960 nM.

As to `C[C@@H]1CCN(c2nccn3ccnc23)CCN1C(=O)c1ccccc1C1(C#N)CC1` [Example 21, (R)-1-(2-(4-(imidazo[1,2-a]pyrazin-8-yl)-7-methyl-1,4-diazepane-1-carbonyl)phenyl)cyclopropanecarbonitrile], the IC50 was 65 nM at human orexin-2 receptor and more than 10000 nM on rat orexin-1 receptor. The “Fold Selective” value at human orexin-2 receptor was determined as 153.

As for `C[C@@H]1CCN(c2nccn3ccnc23)CCN1C(=O)c1ccccc1-n1nccn1` [Example 22, 8-[(5R)-5-methyl-4-{[2-(2H-1,2,3-triazol-2-yl)phenyl]carbonyl}-1,4-diazepan-1-yl]imidazo[1,2-a]pyrazine], on human orexin-2 receptor, the IC50 worked out at 50 nM and the “Fold Selective” value turned out to be 200. Also, the IC50 at rat orexin-1 receptor is more than 10000 nM.

Take `C[C@@H]1CCN(c2nccn3ccnc23)CCN1C(=O)c1ccccc1C1CC1` [Example 23, 8-{(5R)-4-[(2-cyclopropylphenyl)carbonyl]-5-methyl-1,4-diazepan-1-yl}imidazo[1,2-a]pyrazine]: on human orexin-2 receptor, the IC50 was determined as 29 nM and the “Fold Selective” value is given as 344. This compound showed an IC50 on rat orexin-1 receptor of more than 10000 nM.

Regarding `C[C@@H]1CCN(c2nccn3nccc23)CCN1C(=O)c1ccccc1-n1nccn1` [Example 24, 4-[(5R)-5-methyl-4-{[2-(2H-1,2,3-triazol-2-yl)phenyl]carbonyl}-1,4-diazepan-1-yl]pyrazolo[1,5-a]pyrazine], the IC50 on human orexin-2 receptor is 113 nM; on rat orexin-1 receptor, more than 10000 nM. The “Fold Selective” value on human orexin-2 receptor worked out at 88.

Regarding `C[C@@H]1CCN(c2nccn3ccnc23)CCN1C(=O)c1cccnc1-n1cccn1` [Example 25, 8-[(5R)-5-methyl-4-{[2-(1H-pyrazol-1-yl)pyridin-3-yl]carbonyl}-1,4-diazepan-1-yl]imidazo[1,2-a]pyrazine], at human orexin-2 receptor, the IC50 came to 126 nM and the “Fold Selective” value turned out to be 79. In addition, the IC50 on rat orexin-1 receptor was more than 10000 nM.

For the origin of these results see patent publication US10000499B2, “Methyl diazepane orexin receptor antagonists” (MERCK SHARP & DOHME CORP., priority 2014, dated 2018).
